Results taken from the CheMixHub viscosity set.
± gives the uncertainty stated by the source.

Assay: xn = mol fraction of the nth substance listed

c1ccccc1 + CCCCCCC
Conditions	viscosity [mPa·s]
294.15 K, 101 kPa, x1 = 0.6	0.4728 ± 0.013
295.15 K, 101 kPa, x1 = 0.3	0.427 ± 0.011
298 K, 101 kPa, x1 = 0.5	0.4167 ± 0.011
298 K, 101.33 kPa, x1 = 0.1007	0.3923 ± 0.015
298 K, 101.33 kPa, x1 = 0.1109	0.3913 ± 0.015
298 K, 101.33 kPa, x1 = 0.1922	0.4003 ± 0.016
298 K, 101.33 kPa, x1 = 0.276	0.4019 ± 0.016
298 K, 101.33 kPa, x1 = 0.2915	0.4023 ± 0.016
298 K, 101.33 kPa, x1 = 0.3953	0.4142 ± 0.016
298 K, 101.33 kPa, x1 = 0.4839	0.4157 ± 0.016
298 K, 101.33 kPa, x1 = 0.5204	0.4382 ± 0.017
298 K, 101.33 kPa, x1 = 0.6729	0.4487 ± 0.017
298 K, 101.33 kPa, x1 = 0.6893	0.5006 ± 0.05
298 K, 101.33 kPa, x1 = 0.6967	0.4544 ± 0.017
298 K, 101.33 kPa, x1 = 0.8532	0.5208 ± 0.019
298 K, 101.33 kPa, x1 = 0.9152	0.5442 ± 0.02
298.15 K, 101 kPa, x2 = 0.1025	0.53 ± 0.006
298.15 K, 101 kPa, x2 = 0.2002	0.491 ± 0.005
298.15 K, 101 kPa, x2 = 0.2919	0.46 ± 0.005
298.15 K, 101 kPa, x2 = 0.4003	0.429 ± 0.005
298.15 K, 101 kPa, x2 = 0.5192	0.41 ± 0.004
298.15 K, 101 kPa, x2 = 0.6209	0.401 ± 0.004
298.15 K, 101 kPa, x2 = 0.7084	0.392 ± 0.004
298.15 K, 101 kPa, x2 = 0.7893	0.388 ± 0.004
298.15 K, 101 kPa, x2 = 0.9165	0.386 ± 0.004
298.15 K, 101.33 kPa, x2 = 0.095	0.532 ± 0.004
298.15 K, 101.33 kPa, x2 = 0.1973	0.485 ± 0.004
298.15 K, 101.33 kPa, x2 = 0.2999	0.455 ± 0.004
298.15 K, 101.33 kPa, x2 = 0.3741	0.439 ± 0.004
298.15 K, 101.33 kPa, x2 = 0.3984	0.431 ± 0.003
298.15 K, 101.33 kPa, x2 = 0.4961	0.414 ± 0.003
298.15 K, 101.33 kPa, x2 = 0.5995	0.403 ± 0.003
298.15 K, 101.33 kPa, x2 = 0.6762	0.397 ± 0.003
298.15 K, 101.33 kPa, x2 = 0.7309	0.395 ± 0.003
298.15 K, 101.33 kPa, x2 = 0.7987	0.391 ± 0.004
298.15 K, 101.33 kPa, x2 = 0.8933	0.389 ± 0.004
308.15 K, 101 kPa, x2 = 0.1025	0.47 ± 0.005
308.15 K, 101 kPa, x2 = 0.2002	0.44 ± 0.005
308.15 K, 101 kPa, x2 = 0.2919	0.412 ± 0.005
308.15 K, 101 kPa, x2 = 0.4003	0.388 ± 0.004
308.15 K, 101 kPa, x2 = 0.5192	0.37 ± 0.004
308.15 K, 101 kPa, x2 = 0.6209	0.36 ± 0.004
308.15 K, 101 kPa, x2 = 0.7084	0.355 ± 0.004
308.15 K, 101 kPa, x2 = 0.7893	0.351 ± 0.004
308.15 K, 101 kPa, x2 = 0.9165	0.349 ± 0.004
318 K, 101 kPa, x1 = 0.5	0.3407 ± 0.0092
318.15 K, 101 kPa, x2 = 0.1025	0.42 ± 0.005
318.15 K, 101 kPa, x2 = 0.2002	0.396 ± 0.004
318.15 K, 101 kPa, x2 = 0.2919	0.371 ± 0.004
318.15 K, 101 kPa, x2 = 0.4003	0.352 ± 0.004
318.15 K, 101 kPa, x2 = 0.5192	0.338 ± 0.004
318.15 K, 101 kPa, x2 = 0.6209	0.33 ± 0.004
318.15 K, 101 kPa, x2 = 0.7084	0.325 ± 0.004
318.15 K, 101 kPa, x2 = 0.7893	0.319 ± 0.004
318.15 K, 101 kPa, x2 = 0.9165	0.318 ± 0.004
323.15 K, 101 kPa, x1 = 0.6	0.342 ± 0.0092

Cc1ccnc(C)c1 + c1ccccc1
viscosity [mPa·s], 101 kPa
Conditions	x1 = 0.1033	x1 = 0.1926	x1 = 0.3022	x1 = 0.397	x1 = 0.492	x1 = 0.6027	x1 = 0.697	x1 = 0.8005	x1 = 0.8995
303 K	0.5693 ± 0.004	0.5838 ± 0.0041	0.6013 ± 0.0043	0.6187 ± 0.0045	0.6483 ± 0.0048	0.6749 ± 0.0051	0.6927 ± 0.0053	0.7197 ± 0.0056	0.7508 ± 0.006
313 K	0.5048 ± 0.0036	0.5147 ± 0.0037	0.5305 ± 0.0039	0.5497 ± 0.0041	0.5727 ± 0.0043	0.5908 ± 0.0045	0.6073 ± 0.0047	0.6318 ± 0.005	0.6679 ± 0.0054
323 K	0.4489 ± 0.0033	0.4582 ± 0.0034	0.4749 ± 0.0036	0.4967 ± 0.0037	0.5102 ± 0.0039	0.5277 ± 0.0041	0.5424 ± 0.0043	0.5752 ± 0.0046	0.5919 ± 0.0048

O=C(c1ccccc1)c1ccc2n1CCC2C(=O)[O-].[NH3+]C(CO)(CO)CO (configuration not stated) + O
viscosity [mPa·s], 101 kPa
Conditions	293.15 K	298.15 K	303.15 K	308.15 K	313.15 K
x1 = 0.0002	1.037 ± 0.021	0.9251 ± 0.021	0.8319 ± 0.021	0.7538 ± 0.021	0.688 ± 0.021
x1 = 0.0007	1.071 ± 0.027	0.9598 ± 0.021	0.8666 ± 0.021	0.7882 ± 0.021	0.723 ± 0.034
x1 = 0.001	1.105 ± 0.022	0.9936 ± 0.022	0.9005 ± 0.021	0.822 ± 0.021	0.7569 ± 0.021

ClC(Cl)=C(Cl)Cl + CC(C)(C)O
303.15 K, 101.33 kPa
Conditions	viscosity [mPa·s]
x1 = 0.1027	2.16 ± 0.014
x1 = 0.2143	1.557 ± 0.01
x1 = 0.3299	1.249 ± 0.008
x1 = 0.4102	1.122 ± 0.008
x1 = 0.5188	1.006 ± 0.007
x1 = 0.6036	0.946 ± 0.006
x1 = 0.7072	0.895 ± 0.006
x1 = 0.8124	0.852 ± 0.006
x1 = 0.9075	0.821 ± 0.006

C1CCC2CCCCC2C1 (configuration not stated) + COC(C)(C)C
303.15 K, 101 kPa
Conditions	viscosity [mPa·s]
x2 = 0.1134	1.739
x2 = 0.184	1.547
x2 = 0.2577	1.367
x2 = 0.3906	1.089
x2 = 0.4774	0.935
x2 = 0.5234	0.863
x2 = 0.6441	0.694
x2 = 0.7771	0.543
x2 = 0.8937	0.431

CC(C)CCl + C1CCOC1
viscosity [mPa·s], 101 kPa
Conditions	298.15 K	313.15 K
x2 = 0.0537	0.4311 ± 0.0053	0.368 ± 0.0051
x2 = 0.1037	0.4325 ± 0.0053	0.3694 ± 0.005
x2 = 0.2081	0.4353 ± 0.0053	0.3723 ± 0.005
x2 = 0.3079	0.4379 ± 0.0053	0.3751 ± 0.005
x2 = 0.41	0.4409 ± 0.0052	0.3781 ± 0.005
x2 = 0.5085	0.4442 ± 0.0052	0.381 ± 0.005
x2 = 0.5964	0.4472 ± 0.0052	0.3837 ± 0.005
x2 = 0.705	0.4512 ± 0.0052	0.3871 ± 0.0049
x2 = 0.8051	0.455 ± 0.0052	0.3904 ± 0.0049
x2 = 0.8989	0.4589 ± 0.0051	0.3938 ± 0.0049
x2 = 0.951	0.461 ± 0.0051	0.3957 ± 0.0049

O=[N+]([O-])c1ccccc1 + CCCO
viscosity [mPa·s], 101.33 kPa
Conditions	x1 = 0.0517	x1 = 0.1088	x1 = 0.173	x1 = 0.2456	x1 = 0.3276	x1 = 0.4224	x1 = 0.5322	x1 = 0.6613	x1 = 0.8145
298.15 K	1.815 ± 0.084	1.725 ± 0.08	1.606 ± 0.075	1.56 ± 0.073	1.511 ± 0.071	1.49 ± 0.07	1.478 ± 0.07	1.494 ± 0.071	1.55 ± 0.073
303.15 K	1.613 ± 0.076	1.558 ± 0.073	1.455 ± 0.069	1.394 ± 0.066	1.402 ± 0.067	1.363 ± 0.065	1.341 ± 0.064	1.352 ± 0.065	1.431 ± 0.068

ClC(Cl)=C(Cl)Cl + CC(C)O
Conditions	viscosity [mPa·s]
298.15 K, 101.3 kPa, x1 = 0.0763	1.855 ± 0.017
298.15 K, 101.3 kPa, x1 = 0.6349	1.025 ± 0.01
303.15 K, 101.33 kPa, x1 = 0.1028	1.473 ± 0.01
303.15 K, 101.33 kPa, x1 = 0.2072	1.251 ± 0.008
303.15 K, 101.33 kPa, x1 = 0.307	1.102 ± 0.007
303.15 K, 101.33 kPa, x1 = 0.3926	1.007 ± 0.007
303.15 K, 101.33 kPa, x1 = 0.5027	0.92 ± 0.006
303.15 K, 101.33 kPa, x1 = 0.6105	0.864 ± 0.006
303.15 K, 101.33 kPa, x1 = 0.6982	0.838 ± 0.006
303.15 K, 101.33 kPa, x1 = 0.7882	0.823 ± 0.006
303.15 K, 101.33 kPa, x1 = 0.8976	0.814 ± 0.006
